Measurements as given in patent publication US20050100561A1, “Use of topical compositions for the control of microbial diseases of the nail” (priority 2002, published 2005).
Marks after values point to notes of the source that are not given here.

Legend:
Scopulariopsis spp. = settings: modal value, n=5
Trichophyton rubrum = settings: modal value, n=26
Microsporum canis = settings: modal value, n=9
Fusarium spp. = settings: modal value, n=16
C. parasilosis = settings: modal value, n=10
C. tropicalis = settings: modal value, n=10
Aspergillus flavus = settings: modal value, n=12
T. tonsurans = settings: modal value, n=10
A. terrus = settings: modal value, n=7
T. mentagrophytes = settings: modal value, n=12
[1] = system: C. pseudotropicalis (kefyr); settings: modal value, n=1
A. fumigatus = settings: modal value, n=12
C. glabrate = settings: modal value, n=4
C. krusei = settings: modal value, n=1
M. gypseum = settings: modal value, n=9
[2] = system: T. mentagrophytes var interdigitale; settings: modal value, n=19
onychomycosis = assay: Treatment of onychomycosis with topical copper silicate (cream or solution), patient trial; assay type: in vivo, human; settings: for Clinical - 100% clear / Clinical - New growth clear / Complete cure (KOH negative, culture negative and 100% clear) / Mycology (KOH negative and culture negative) / Mycology (KOH negative or culture negative): interim, applied twice daily
Description: Subjects, not already receiving anti-fungal treatment, were assessed for clinical diagnosis of onychomycosis and photographs and nail clippings were taken. Those testing positive for onychomycosis were admitted to the trial.
The anti-fungal composition (cream or solution) was applied to the infected nail twice daily for the duration of the treatment.
Estimates of the nail area involved were made during clinical visits and photographs were taken. Nail clippings were collected for KOH and dermatophyte culture. […] Results
The results presented hereunder are interim results of a 12 month study. Patients entered the trial and commenced their treatment at different dates. […] Patients were assessed at 0 (commencement). 6 weeks and 12 weeks.

Epidermophyton floccosum = settings: modal value, n=11
Candida albicans = settings: modal value, n=10
A. niger = settings: modal value, n=14
Scedosporium spp. = settings: modal value, n=5
[3] = Post-treatment Week 13 (N = 18)
[4] = Post-treatment Week 13 (N = 18), = 39 weeks
[5] = Post-treatment Week 26 (N = 18)
[6] = Treatment time Week 12 (N = 18)
[7] = Treatment time Week 26 (N = 18)

copper silicate
9: Dermatophyte culture Positive, number of patients (onychomycosis; [5]) | Dermatophyte culture Negative, number of patients (onychomycosis; Post-treatment Week 26 (N = 18), = 52 weeks, end of the trial)
28%: "Mycological cure" patients (onychomycosis; after 26 weeks)
11: % Nail infected >50%, number of patients (onychomycosis; Treatment time Week 6 (N = 18)) | New growth Clear, number of patients (onychomycosis; Treatment time Week 6 (N = 18)) | Dermatophyte culture Negative, number of patients (onychomycosis; [6])
2: % Nail infected 1-10%, number of patients (onychomycosis; [5]) | % Nail infected 1-10%, number of patients (onychomycosis; Treatment time Week 6 (N = 18)) | Outcome Effective treatment, number of patients (onychomycosis; Treatment time Week 6 (N = 18)) | New growth Not clear, number of patients (onychomycosis; [6]) | Outcome Complete cure, number of patients (onychomycosis; [6]) | New growth Not clear, number of patients (onychomycosis; [7])
8^#: Outcome Not effective, number of patients (onychomycosis; Treatment time Week 6 (N = 18), includes 2 patients that are KOH negative)
0.0700 % w/w as Cu: Minimum Fungicidal Concentration (MFC) (Microsporum canis) | Minimum Fungicidal Concentration (MFC) (Fusarium spp.) | Minimum Inhibitory Concentration (MIC) (Fusarium spp.) | Minimum Fungicidal Concentration (MFC) (C. tropicalis) | Minimum Inhibitory Concentration (MIC) (A. terrus) | Minimum Fungicidal Concentration (MFC) (Candida albicans)
8: % Nail infected >50%, number of patients (onychomycosis; [3]) | Dermatophyte culture Positive, number of patients (onychomycosis; [3]) | Infecting organism T. rubrum, number of patients (onychomycosis; [5]) | Dermatophyte culture Positive, number of patients (onychomycosis; Treatment time Week 6 (N = 18)) | Outcome Mycological change (culture positive to culture negative), number of patients (onychomycosis; [6]) | % Nail infected 11-50%, number of patients (onychomycosis; [7])
16: New growth Clear, number of patients (onychomycosis; [6]) | New growth Clear, number of patients (onychomycosis; [7])
0.1400 % w/w as Cu: Minimum Inhibitory Concentration (MIC) (Aspergillus flavus) | Minimum Fungicidal Concentration (MFC) (C. glabrate) | Minimum Fungicidal Concentration (MFC) (M. gypseum) | Minimum Fungicidal Concentration (MFC) (A. niger)
22%: Patients "effectively treated" (onychomycosis; 26 weeks post treatment) | "Mycological cure" rate (onychomycosis; at 52 weeks)
70 % of Patients: Clinical - New growth clear (onychomycosis; 12 Weeks (n = 10))
55%: Patients culture negative (onychomycosis; 13 weeks post-treatment)
15: New growth Clear, number of patients (onychomycosis; [3]) | New growth Clear, number of patients (onychomycosis; [5])
1: % Nail infected 1-10%, number of patients (onychomycosis; [3]) | Infecting organism T. mentagrophytes v. interdigitale, number of patients (onychomycosis; [3]) | Infecting organism T. mentagrophytes v. interdigitale, number of patients (onychomycosis; [5]) | Infecting organism T. mentagrophytes v. interdigitale, number of patients (onychomycosis; Treatment time Week 6 (N = 18)) | % Nail infected 1-10%, number of patients (onychomycosis; [6]) | Infecting organism T. mentagrophytes v. interdigitale, number of patients (onychomycosis; [6]) | % Nail infected 1-10%, number of patients (onychomycosis; [7]) | Infecting organism T. mentagrophytes v. interdigitale, number of patients (onychomycosis; [7])
7^@: Outcome Not effective, number of patients (onychomycosis; Treatment time Week 12 (N = 18), includes 1 patient that is KOH negative)
4: KOH Negative, number of patients (onychomycosis; [3]) | Outcome Effective treatment, number of patients (onychomycosis; [5]) | Outcome Mycological cure, number of patients (onychomycosis; [5]) | KOH Negative, number of patients (onychomycosis; Treatment time Week 6 (N = 18)) | Outcome Mycological cure, number of patients (onychomycosis; Treatment time Week 6 (N = 18)) | % Nail infected 11-50%, number of patients (onychomycosis; [6]) | KOH Negative, number of patients (onychomycosis; [6])
12: KOH Positive, number of patients (onychomycosis; [5]) | Dermatophyte culture Negative, number of patients (onychomycosis; [7]) | KOH Positive, number of patients (onychomycosis; [7])
6: % Nail infected 11-50%, number of patients (onychomycosis; [3]) | % Nail infected 11-50%, number of patients (onychomycosis; [5]) | KOH Negative, number of patients (onychomycosis; [5]) | Outcome Mycological change (culture positive to culture negative), number of patients (onychomycosis; Treatment time Week 6 (N = 18)) | Infecting organism T. rubrum, number of patients (onychomycosis; [6]) | % Nail infected >50%, number of patients (onychomycosis; [7]) | Dermatophyte culture Positive, number of patients (onychomycosis; [7]) | KOH Negative, number of patients (onychomycosis; [7])
53 % of Patients: Mycology (KOH negative or culture negative) (onychomycosis; 6 Weeks (n = 13))
61 % of Patients: Clinical - New growth clear (onychomycosis; 6 Weeks (n = 13))
3: % Nail infected 0% (clear), number of patients (onychomycosis; [3]) | New growth Not clear, number of patients (onychomycosis; [3]) | Outcome Complete cure, number of patients (onychomycosis; [3]) | Outcome Effective treatment, number of patients (onychomycosis; [3]) | Outcome Mycological cure, number of patients (onychomycosis; [3]) | % Nail infected 0% (clear), number of patients (onychomycosis; [5]) | New growth Not clear, number of patients (onychomycosis; [5]) | Outcome Complete cure, number of patients (onychomycosis; Post-treatment Week 26 (N = 18), = 52 weeks) | % Nail infected 0% (clear), number of patients (onychomycosis; [6]) | Outcome Effective treatment, number of patients (onychomycosis; [6]) | Outcome Mycological cure, number of patients (onychomycosis; [6]) | % Nail infected 0% (clear), number of patients (onychomycosis; [7]) | Outcome Complete cure, number of patients (onychomycosis; [7]) | Outcome Effective treatment, number of patients (onychomycosis; [7])
50%: Patients with >50% of nail plate diseased having significant clinical improvement (reduction to <50% of the nail plate) (onychomycosis; at 26 weeks) | Patients culture negative (onychomycosis; end of the trial)
9^@: Outcome Not effective, number of patients (onychomycosis; Post-treatment Week 26 (N = 18), includes 1 patient that is KOH negative)
0.0175 % w/w as Cu: Minimum Inhibitory Concentration (MIC) (Trichophyton rubrum) | Minimum Inhibitory Concentration (MIC) (T. mentagrophytes) | Minimum Fungicidal Concentration (MFC) (C. krusei) | Minimum Inhibitory Concentration (MIC) (C. krusei) | Minimum Inhibitory Concentration (MIC) [2]
30 % of Patients: Clinical - 100% clear (onychomycosis; 12 Weeks (n = 10))
0 % of Patients: Clinical - 100% clear (onychomycosis; 6 Weeks (n = 13)) | Complete cure (KOH negative, culture negative and 100% clear) (onychomycosis; 6 Weeks (n = 13)) | Mycology (KOH negative and culture negative) (onychomycosis; 6 Weeks (n = 13))
6^@: Outcome Not effective, number of patients (onychomycosis; Treatment time Week 26 (N = 18), includes 1 patient that is KOH negative)
67%: Patients culture negative (onychomycosis; end of treatment)
10: Dermatophyte culture Negative, number of patients (onychomycosis; [4]) | Dermatophyte culture Negative, number of patients (onychomycosis; Treatment time Week 6 (N = 18)) | % Nail infected >50%, number of patients (onychomycosis; [6])
80 % of Patients: Mycology (KOH negative or culture negative) (onychomycosis; 12 Weeks (n = 10))
20 % of Patients: Complete cure (KOH negative, culture negative and 100% clear) (onychomycosis; 12 Weeks (n = 10)) | Mycology (KOH negative and culture negative) (onychomycosis; 12 Weeks (n = 10))
>0.1400 % w/w as Cu: Minimum Fungicidal Concentration (MFC) (Scopulariopsis spp.) | Minimum Fungicidal Concentration (MFC) (Aspergillus flavus) | Minimum Fungicidal Concentration (MFC) (A. terrus) | Minimum Fungicidal Concentration (MFC) (A. fumigatus) | Minimum Fungicidal Concentration (MFC) (Scedosporium spp.)
7: Infecting organism T. rubrum, number of patients (onychomycosis; [3]) | Outcome Mycological change (culture positive to culture negative), number of patients (onychomycosis; [4]) | % Nail infected >50%, number of patients (onychomycosis; [5]) | Infecting organism T. rubrum, number of patients (onychomycosis; Treatment time Week 6 (N = 18)) | New growth Not clear, number of patients (onychomycosis; Treatment time Week 6 (N = 18)) | Dermatophyte culture Positive, number of patients (onychomycosis; [6]) | Outcome Mycological change (culture positive to culture negative), number of patients (onychomycosis; [7])
14: KOH Positive, number of patients (onychomycosis; [3]) | KOH Positive, number of patients (onychomycosis; Treatment time Week 6 (N = 18)) | KOH Positive, number of patients (onychomycosis; [6])
5: Outcome Mycological change (culture positive to culture negative), number of patients (onychomycosis; [5]) | % Nail infected 11-50%, number of patients (onychomycosis; Treatment time Week 6 (N = 18)) | Infecting organism T. rubrum, number of patients (onychomycosis; [7]) | Outcome Mycological cure, number of patients (onychomycosis; [7])
0.0350 % w/w as Cu: Minimum Inhibitory Concentration (MIC) (Scopulariopsis spp.) | Minimum Fungicidal Concentration (MFC) (Trichophyton rubrum) | Minimum Inhibitory Concentration (MIC) (Microsporum canis) | Minimum Fungicidal Concentration (MFC) (C. parasilosis) | Minimum Inhibitory Concentration (MIC) (C. parasilosis) | Minimum Inhibitory Concentration (MIC) (C. tropicalis) | Minimum Fungicidal Concentration (MFC) (T. tonsurans) | Minimum Inhibitory Concentration (MIC) (T. tonsurans) | Minimum Fungicidal Concentration (MFC) (T. mentagrophytes) | Minimum Fungicidal Concentration (MFC) [1] | Minimum Inhibitory Concentration (MIC) [1] | Minimum Inhibitory Concentration (MIC) (A. fumigatus) | Minimum Inhibitory Concentration (MIC) (C. glabrate) | Minimum Inhibitory Concentration (MIC) (M. gypseum) | Minimum Fungicidal Concentration (MFC) [2] | Minimum Fungicidal Concentration (MFC) (Epidermophyton floccosum) | Minimum Inhibitory Concentration (MIC) (Epidermophyton floccosum) | Minimum Inhibitory Concentration (MIC) (Candida albicans) | Minimum Inhibitory Concentration (MIC) (A. niger) | Minimum Inhibitory Concentration (MIC) (Scedosporium spp.)
0: % Nail infected 0% (clear), number of patients (onychomycosis; Treatment time Week 6 (N = 18)) | Outcome Complete cure, number of patients (onychomycosis; Treatment time Week 6 (N = 18))
8^@: Outcome Not effective, number of patients (onychomycosis; Post-treatment Week 13 (N = 18), includes 1 patient that is KOH negative)
